Here are results for 30 compounds from patent US12421249B2, “Inhibitors of APOL1 and methods of using same” (Vertex Pharmaceuticals Incorporated, priority 2020, dated 2025).

Where two headings read alike, the source gives them in different places.

By IC90 is commonly meant the concentration at which the effect reaches the 90% level. Read a high IC90 as weaker potency.

Test [1] deals with T1, APOL1 G1 (Homo sapiens, UniProt O14791, I384M/S342G).
T1 sequence (O14791 28-398 S342G/I384M): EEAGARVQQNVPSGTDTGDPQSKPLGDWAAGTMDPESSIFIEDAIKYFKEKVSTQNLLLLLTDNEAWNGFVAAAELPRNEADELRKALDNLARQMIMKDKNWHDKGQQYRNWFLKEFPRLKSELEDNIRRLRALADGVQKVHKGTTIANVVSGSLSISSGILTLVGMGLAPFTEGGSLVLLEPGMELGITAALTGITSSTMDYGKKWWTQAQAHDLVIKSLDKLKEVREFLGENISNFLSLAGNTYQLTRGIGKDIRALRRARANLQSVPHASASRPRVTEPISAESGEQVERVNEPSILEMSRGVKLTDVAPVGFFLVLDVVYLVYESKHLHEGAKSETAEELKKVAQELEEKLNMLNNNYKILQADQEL
In words: Trypanosoma brucei brucei Lysis Assay Using APOL1 Recombinant Protein (AlamarBlue viability readout). It counts as cell-based. The following applies: for Emax: read-out: Trypanosome Assay Max Activity (%). In a few lines: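 Percent viability comes from AlamarBlue (resazurin→resorufin) fluorescence interpolated on a standard curve of known parasite numbers, with no-APOL1 wells as 100%. Parasites (Lister 427 bloodstream form, 120,000/well, serum-free assay medium) meet 0.05 μg/mL APOL1 (~EC90). Compounds span a 10-point series, 0.1% DMSO final.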
In general terms: The colour change of resazurin is a common sign of viable cells or microbes.

Test [2] addresses T2, APOL1 (Homo sapiens, UniProt O14791).
T2 sequence (O14791 1-398 S342G/I384M): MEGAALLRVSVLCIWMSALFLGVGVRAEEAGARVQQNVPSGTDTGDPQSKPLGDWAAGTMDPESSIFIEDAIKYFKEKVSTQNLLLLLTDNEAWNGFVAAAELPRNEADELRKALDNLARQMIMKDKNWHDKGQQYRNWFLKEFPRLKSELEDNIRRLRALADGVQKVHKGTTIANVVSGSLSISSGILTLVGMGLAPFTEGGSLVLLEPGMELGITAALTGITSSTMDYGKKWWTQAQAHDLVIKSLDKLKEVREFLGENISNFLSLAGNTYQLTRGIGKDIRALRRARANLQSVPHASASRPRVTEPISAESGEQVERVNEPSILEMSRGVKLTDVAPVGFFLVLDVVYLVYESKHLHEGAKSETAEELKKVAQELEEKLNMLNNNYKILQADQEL
In words: Multi-Tox Assay (MultiTox-Fluor Multiplex Cytotoxicity Assay in tet-inducible APOL1 T-REx-HEK293 cells; Table 46 does not say which APOL1 variant G0/G1/G2). It counts as cell-based. Conditions: APOL1 variant not given; for IC50: IP50 = IC50 for cell proliferation.

[3] abbreviates: Trypanosome Assay, IP50 = IC50 for cell proliferation, read-out: Trypanosome Assay IP50.

`C[C@H]1C[C@@]2(C[C@@H](c3ccc(O)nn3)N1)OCCc1cc(Cl)sc12` (stereo in doubt) [Compound 86]: the IC50 in test [1] (setting [3]) and in test [2] was under 50 nM in each case. In addition, in test [1] (Trypanosome Assay), the Emax was 112%.

With `CCc1cc([C@@H]2C[C@]3(C[C@H](C)N2)OCCc2cc(Cl)sc23)on1` (stereo in doubt) [Compound 91], the IC50 in test [1] (setting [3]) and in test [2] was under 50 nM each time. Further, the Emax in test [1] (Trypanosome Assay) stood at 110%.

As to `C[C@H]1C[C@@]2(C[C@@H](c3cnn(C4CCS(=O)(=O)C4)c3)N1)OCCc1cc(Cl)sc12` (stereo in doubt) [Compound 97], the IC50 in test [1] (setting [3]) and in test [2] was under 50 nM each time. Besides, the Emax in test [1] (Trypanosome Assay) came to 104%.

With `C[C@H]1C[C@@]2(C[C@@H](c3cc(C4CCOCC4)[nH]n3)N1)OCCc1cc(Cl)sc12` (stereo in doubt) [Compound 114], the IC50 in test [1] (setting [3]) was 50 to 500 nM. In test [1] (Trypanosome Assay), the Emax was determined as 95%. In addition, in test [2], the “Multi-Tox Assay Max Activity (%)” value was determined as 99.7% and the IC50 was under 50 nM.

In the case of `C[C@H]1C[C@@]2(C[C@@H](c3cc(C(F)(F)F)[nH]n3)N1)OCCc1cc(Cl)sc12` (stereo in doubt) [Compound 119], the IC50 in test [1] (setting [3]) was 50 to 500 nM; in test [2] it was under 50 nM. The Emax in test [1] (Trypanosome Assay) came out at 97.5%. Moreover, in test [2], the “Multi-Tox Assay Max Activity (%)” value is given as 99.7%.

As for `C[C@H]1C[C@@]2(C[C@@H](c3cccn4ccnc34)N1)OCCc1cc(Cl)sc12` (stereo in doubt) [Compound 143], in test [1] (setting [3]), the IC50 was in the range of 50 to 500 nM. Moreover, in test [1] (Trypanosome Assay), the Emax is 101%. Moreover, in test [2], the “Multi-Tox Assay Max Activity (%)” value is reported as 98.0% and the IC50 lay within 50 to 500 nM.

Regarding `C[C@H]1CC2(CC(c3cn(C)cn3)N1)OCC(O)c1cc(Cl)sc12` (stereo in doubt) [Compound 178], the IC50 in test [1] (setting [3]) and in test [2] was under 50 nM throughout. In test [1] (Trypanosome Assay), the Emax amounted to 101%.

In the case of `C[C@H]1CC2(CC(c3cn(C)cn3)N1)OCC(O)c1cc(Cl)sc12` (stereo in doubt) [Compound 179], the “Trypanosome Assay Max Activity (%)” value in test [1] (Trypanosome Assay) is reported as 119.5%. The IC50 in test [1] (setting [3]) is under 50 nM. For the same compound, in test [2], the IC90 is under 50 nM, the “Multi-Tox Assay Max Activity (%)” value turned out to be 99.0% and the IC50 was under 50 nM.

On to `C[C@H]1C[C@@]2(C[C@@H](c3cn(C)nn3)N1)OCCc1cc(Cl)sc12` [Compound 1, (2′S,6′S,7S)-2-chloro-2′-methyl-6′-(1-methyltriazol-4-yl)spiro[4,5-dihydrothieno[2,3-c]pyran-7,4′-piperidine]], for which the IC50 in test [1] (setting [3]) and in test [2] was under 50 nM each time. The Emax in test [1] (Trypanosome Assay) was 124%.

On to `C[C@H]1C[C@@]2(C[C@@H](c3cn(C)nn3)N1)OCCc1cc(C(F)(F)F)sc12` [Compound 2, (2′S,6′S,7S)-2′-methyl-6′-(1-methyltriazol-4-yl)-2-(trifluoromethyl)spiro[4,5-dihydrothieno[2,3-c]pyran-7,4′-piperidine]], for which the IC50 in test [1] (setting [3]) and in test [2] was under 50 nM each time. Also, in test [1] (Trypanosome Assay), the Emax came to 117%.

For the compound `C[C@H]1C[C@@]2(C[C@@H](c3cn(C)nn3)N1)OCCc1sc(C(F)(F)F)cc12` [Compound 8, (2′S,4S,6′S)-2′-methyl-6′-(1-methyltriazol-4-yl)-2-(trifluoromethyl)spiro[6,7-dihydrothieno[3,2-c]pyran-4,4′-piperidine]], in test [1] (setting [3]), the IC50 fell in the range of 50 to 500 nM. Moreover, in test [1] (Trypanosome Assay), the Emax was 106%. Moreover, in test [2], the “Multi-Tox Assay Max Activity (%)” value turned out to be 100.0% and the IC50 is under 50 nM.

Turning to `CC1CC2(CC(c3cnn(CCS(C)(=O)=O)c3)N1)OCCc1sc(C(F)(F)F)cc12` (stereo not shown) [Compound 9], the IC50 in test [1] (setting [3]) is 50 to 500 nM; in test [2] it was under 50 nM. Moreover, in test [1] (Trypanosome Assay), the Emax was 108%. Further, the “Multi-Tox Assay Max Activity (%)” value in test [2] was 100.0%.

With `C[C@H]1C[C@@]2(C[C@@H](c3cn(C)nn3)N1)OCCc1c2sc(C(F)(F)F)c1CO` [Compound 17, [(2′S,6′S, 7S)-2′-methyl-6′-(1-methyltriazol-4-yl)-2-(trifluoromethyl)spiro[4,5-dihydrothieno[2,3-c]pyran-7,4′-piperidine]-3-yl]methanol], the IC50 in test [1] (setting [3]) is 50 to 500 nM; in test [2] it was under 50 nM. For the same compound, the Emax in test [1] (Trypanosome Assay) was found to be 102%.

In the case of `C[C@H]1C[C@@]2(C[C@@H](c3cnn(CC(=O)N(C)C)c3)N1)OCCc1cc(Cl)sc12` [Compound 18, 2-[4-[(2S,6S)-2-chloro-6′-methyl-spiro[4,5-dihydrothieno[2,3-c]pyran-7,4′-piperidine]-2′-yl]pyrazol-1-yl]-N,N-dimethyl-acetamide], the IC50 in test [1] (setting [3]) is 50 to 500 nM; in test [2], under 50 nM. Also, in test [1] (Trypanosome Assay), the Emax turned out to be 103%.

As for `C[C@H]1C[C@@]2(C[C@@H](c3cnn(C)c3)N1)OCCc1cc(Cl)sc12` [Compound 19, (2S)-2-chloro-2′-methyl-6′-(1-methylpyrazol-4-yl)spiro[4,5-dihydrothieno[2,3-c]pyran-7,4′-piperidine]], the IC50 in test [1] (setting [3]) and in test [2] was under 50 nM each time. For the same compound, the Emax in test [1] (Trypanosome Assay) worked out at 107%.

For the compound `CC1CC2(CC(c3ccc4c(c3)oc(=O)n4C)N1)OCCc1cc(Cl)sc12` (stereo not shown) [Compound 23], in test [1] (setting [3]), the IC50 is under 50 nM. Also, the Emax in test [1] (Trypanosome Assay) was 116%. Moreover, in test [2], the IC90 was under 50 nM, the “Multi-Tox Assay Max Activity (%)” value came out at 99.7% and the IC50 was under 50 nM.

In the case of `CC1CC2(CC(c3cccc(C#N)c3)N1)OCCc1cc(Cl)sc12` (stereo not shown) [Compound 24], in test [1] (setting [3]), the IC50 is under 50 nM. Further, the Emax in test [1] (Trypanosome Assay) worked out at 107%. For the same compound, in test [2], the “Multi-Tox Assay Max Activity (%)” value is reported as 100.0% and the IC50 was under 50 nM.

With `CNC(=O)c1cccc(C2CC3(CC(C)N2)OCCc2cc(Cl)sc23)c1` (stereo not shown) [Compound 27], the IC50 in test [1] (setting [3]) and in test [2] was under 50 nM in each case. The Emax in test [1] (Trypanosome Assay) turned out to be 112%.

Take `CC1CC2(CC(c3ccncc3)N1)OCCc1cc(Cl)sc12` (stereo not shown) [Compound 30]: in test [1], the IC50 is under 50 nM and the Emax turned out to be 124%. In test [2], the “Multi-Tox Assay Max Activity (%)” value is on record as 99.0% and the IC50 is under 50 nM.

`CC1CC2(CC(c3cn[nH]c3)N1)OCCc1cc(Cl)sc12` (stereo not shown) [Compound 31]: the IC50 in test [1] (setting [3]) is under 50 nM. Further, the Emax in test [1] (Trypanosome Assay) was determined as 123%. In addition, in test [2], the IC90 is under 50 nM, the “Multi-Tox Assay Max Activity (%)” value turned out to be 100.0% and the IC50 was under 50 nM.

Consider `CC1CC2(CC(c3cc(F)cc(C#N)c3)N1)OCCc1cc(Cl)sc12` (stereo not shown) [Compound 33], for which the IC50 in test [1] (setting [3]) and in test [2] was under 50 nM each time. Moreover, the Emax in test [1] (Trypanosome Assay) was 111%.

For `COc1ccc(C2CC3(CC(C)N2)OCCc2cc(Cl)sc23)nc1` (stereo not shown) [Compound 34], the IC50 in test [1] (setting [3]) was under 50 nM. The Emax in test [1] (Trypanosome Assay) stood at 115%. Besides, in test [2], the “Multi-Tox Assay Max Activity (%)” value is on record as 99.0% and the IC50 is under 50 nM.

For `CC1CC2(CC(c3ccc4[nH]ncc4c3)N1)OCCc1cc(Cl)sc12` (stereo not shown) [Compound 35], the IC50 in test [1] (setting [3]) and in test [2] was under 50 nM in each case. Moreover, the Emax in test [1] (Trypanosome Assay) came to 111%.

On to `CC(=O)Nc1ccc(C2CC3(CC(C)N2)OCCc2cc(Cl)sc23)cn1` (stereo not shown) [Compound 37], for which the IC50 in test [1] (setting [3]) and in test [2] was under 50 nM throughout. Further, the Emax in test [1] (Trypanosome Assay) stood at 114%.

With `CC1CC2(CC(c3cnn(C)n3)N1)OCCc1cc(Cl)sc12` (stereo not shown) [Compound 38], the IC50 in test [1] (setting [3]) and in test [2] was under 50 nM in each case. In addition, the Emax in test [1] (Trypanosome Assay) is 112%.

Regarding `CC1CC2(CC(c3ccc4c(c3)OCC(=O)N4)N1)OCCc1cc(Cl)sc12` (stereo not shown) [Compound 39], the IC50 in test [1] (setting [3]) and in test [2] was under 50 nM in each case. Moreover, the Emax in test [1] (Trypanosome Assay) came to 116%.

Regarding `CC1CC2(CC(c3cnn(-c4cccnc4)c3)N1)OCCc1cc(Cl)sc12` (stereo not shown) [Compound 40], the IC50 in test [1] (setting [3]) and in test [2] was under 50 nM each time. Moreover, the Emax in test [1] (Trypanosome Assay) was 118%. Further, the “Multi-Tox Assay Max Activity (%)” value in test [2] stood at 100.0%.

Consider `CNC(=O)c1ccc(C2CC3(CC(C)N2)OCCc2cc(Cl)sc23)cc1` (stereo not shown) [Compound 41], for which the IC50 in test [1] (setting [3]) and in test [2] was under 50 nM in each case. The Emax in test [1] (Trypanosome Assay) is 112%.

Take `Cc1nn(C)c2ncc(C3CC4(CC(C)N3)OCCc3cc(Cl)sc34)cc12` (stereo not shown) [Compound 42]: the IC50 in test [1] (setting [3]) and in test [2] was under 50 nM in each case. Moreover, the Emax in test [1] (Trypanosome Assay) came out at 110%.

For the compound `Cc1cc(C2CC3(CC(C)N2)OCCc2cc(Cl)sc23)ncn1` (stereo not shown) [Compound 43], the IC50 in test [1] (setting [3]) was under 50 nM. Also, the Emax in test [1] (Trypanosome Assay) came out at 103%. Also, in test [2], the “Multi-Tox Assay Max Activity (%)” value worked out at 100.0% and the IC50 is under 50 nM.
